Measurements taken from ChEMBL document CHEMBL5393457, “Combined inhibition of amino acid transporters for inhibiting human plasmacytoid dendritic cell activity during autoimmunity” (2022).
Activity calls are given as the source filed them.

Assays:
[1] = target: Large neutral amino acids transporter small subunit 1 (Homo sapiens) (UniProt Q01650); experiment: Inhibition of SLC7A5 in CpG-A-stimulated human plasmacytoid dendritic cells at 5 to 10 uM assessed as decrease in TNF production; assay type: cell-based; settings: Plasmacytoid dendritic cell, dose 5-10 µM
Sequence of Large neutral amino acids transporter small subunit 1 (Homo sapiens) (Q01650 whole entry): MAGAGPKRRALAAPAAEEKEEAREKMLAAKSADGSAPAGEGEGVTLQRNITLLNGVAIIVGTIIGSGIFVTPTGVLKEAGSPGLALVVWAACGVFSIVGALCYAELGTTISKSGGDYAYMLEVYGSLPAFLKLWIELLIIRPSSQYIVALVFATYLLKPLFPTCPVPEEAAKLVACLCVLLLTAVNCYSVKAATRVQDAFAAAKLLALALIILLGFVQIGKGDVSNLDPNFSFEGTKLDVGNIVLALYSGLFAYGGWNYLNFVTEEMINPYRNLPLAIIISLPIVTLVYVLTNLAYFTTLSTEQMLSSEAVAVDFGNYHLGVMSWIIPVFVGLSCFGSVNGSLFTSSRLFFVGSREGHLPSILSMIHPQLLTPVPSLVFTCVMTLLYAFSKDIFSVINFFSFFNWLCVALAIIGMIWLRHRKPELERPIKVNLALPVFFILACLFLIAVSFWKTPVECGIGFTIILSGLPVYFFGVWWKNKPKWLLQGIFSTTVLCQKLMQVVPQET

[2] = target: Large neutral amino acids transporter small subunit 1 (Homo sapiens) (UniProt Q01650); experiment: Inhibition of SLC7A5 in CpG-A-stimulated human plasmacytoid dendritic cells at 5 to 10 uM assessed as decrease in kynurenine transport; assay type: cell-based; settings: Plasmacytoid dendritic cell, dose 5-10 µM
[3] = system: Plasmacytoid dendritic cell; experiment: Inhibition of SLC7A5/SLC3A2 in IL-3 and CpG-A-stimulated human plasmacytoid dendritic cells at 1 to 2 uM assessed as decrease in IFN-alpha production in presence of 100 uM sulfasalazine; assay type: cell-based; settings: dose 1-2 µM
[4] = target: Large neutral amino acids transporter small subunit 1 (Homo sapiens) (UniProt Q01650); experiment: Inhibition of SLC7A5 in CpG-A-stimulated human plasmacytoid dendritic cells at 5 to 10 uM assessed as decrease in IFN-alpha production; assay type: cell-based; settings: Plasmacytoid dendritic cell, dose 5-10 µM
[5] = system: Plasmacytoid dendritic cell; experiment: Inhibition of SLC7A5/SLC3A2 in IL-3 and CpG-A-stimulated human plasmacytoid dendritic cells at 1 to 2 uM assessed as decrease in TNF production in presence of 100 uM sulfasalazine; assay type: cell-based; settings: dose 1-2 µM
[6] = target: Large neutral amino acids transporter small subunit 1 (Homo sapiens) (UniProt Q01650); experiment: Inhibition of SLC7A5 in CpG-A-stimulated human plasmacytoid dendritic cells at 5 to 10 uM assessed as decrease in pS6 levels; assay type: cell-based; settings: Plasmacytoid dendritic cell, dose 5-10 µM
[7] = target: T1, Cystine/glutamate transporter (Homo sapiens) (UniProt Q9UPY5); experiment: Inhibition of XCT in IL-3 CpG-A-activated human plasma at 10 uM assessed as decrease in pDC activation
T1 sequence (whole entry): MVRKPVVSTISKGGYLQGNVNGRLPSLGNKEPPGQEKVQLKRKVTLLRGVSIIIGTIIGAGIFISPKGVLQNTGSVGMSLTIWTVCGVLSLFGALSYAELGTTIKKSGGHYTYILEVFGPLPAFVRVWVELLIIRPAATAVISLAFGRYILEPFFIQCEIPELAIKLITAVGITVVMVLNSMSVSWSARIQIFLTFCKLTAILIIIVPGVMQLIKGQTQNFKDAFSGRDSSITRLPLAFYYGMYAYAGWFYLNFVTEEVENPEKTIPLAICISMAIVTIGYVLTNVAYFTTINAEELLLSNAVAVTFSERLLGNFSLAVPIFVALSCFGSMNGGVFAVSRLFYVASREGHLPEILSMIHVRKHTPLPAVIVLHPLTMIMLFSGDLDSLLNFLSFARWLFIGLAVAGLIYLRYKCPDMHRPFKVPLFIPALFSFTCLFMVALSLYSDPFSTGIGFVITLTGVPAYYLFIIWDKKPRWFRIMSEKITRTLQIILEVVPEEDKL

[8] = target: T1, Cystine/glutamate transporter (Homo sapiens); experiment: Inhibition of XCT in CpG-A-activated human plasmacytoid dendritic cells at 10 uM assessed as decrease in ENPP2 expression; assay type: cell-based; settings: Plasmacytoid dendritic cell
[9] = target: T1, Cystine/glutamate transporter (Homo sapiens); experiment: Inhibition of XCT in CpG-A-activated human plasmacytoid dendritic cells at 10 uM assessed as decrease in MYO1E expression; assay type: cell-based; settings: Plasmacytoid dendritic cell
[10] = target: T1, Cystine/glutamate transporter (Homo sapiens); experiment: Inhibition of XCT in CpG-A-activated human plasmacytoid dendritic cells at 1 uM assessed as decrease in TNF production; assay type: cell-based; settings: Plasmacytoid dendritic cell
[11] = target: T1, Cystine/glutamate transporter (Homo sapiens); experiment: Inhibition of XCT in CpG-A-activated human plasmacytoid dendritic cells at 5 uM assessed as decrease in IFN-alpha production; assay type: cell-based; settings: Plasmacytoid dendritic cell
[12] = target: T1, Cystine/glutamate transporter (Homo sapiens); experiment: Inhibition of XCT in CpG-A-activated human plasmacytoid dendritic cells at 5 uM assessed as decrease in S6 phosphorylation; assay type: cell-based; settings: Plasmacytoid dendritic cell
[13] = target: T1, Cystine/glutamate transporter (Homo sapiens); experiment: Inhibition of XCT in CpG-A-activated human plasmacytoid dendritic cells at 1 uM assessed as decrease in IFN-alpha production; assay type: cell-based; settings: Plasmacytoid dendritic cell
[14] = target: T1, Cystine/glutamate transporter (Homo sapiens); experiment: Inhibition of XCT in CpG-A-activated human plasmacytoid dendritic cells at 5 uM assessed as decrease in TNF production; assay type: cell-based; settings: Plasmacytoid dendritic cell
[15] = target: T1, Cystine/glutamate transporter (Homo sapiens); experiment: Inhibition of XCT in CpG-A-activated human plasmacytoid dendritic cells at 5 uM assessed as decrease in kynurenine uptake; assay type: cell-based; settings: Plasmacytoid dendritic cell
[16] = target: T2, Janus Kinase (JAK) (Homo sapiens) (UniProt P52333+P23458+O60674+P29597); experiment: Inhibition of JAK in IL-3 and CpG-A-stimulated human plasmacytoid dendritic cells at 0.2 to 20 uM assessed as decrease in TNF production; assay type: cell-based; settings: Plasmacytoid dendritic cell, dose 0.2-20 µM
[17] = target: T2, Janus Kinase (JAK) (Homo sapiens); experiment: Inhibition of JAK in IL-3 and CpG-A-stimulated human plasmacytoid dendritic cells at 0.2 to 20 uM assessed as decrease in IFN-alpha production; assay type: cell-based; settings: Plasmacytoid dendritic cell, dose 0.2-20 µM

Measured: inhibition

Nc1cc(COc2c(Cl)cc(C[C@H](N)C(=O)O)cc2Cl)c2oc(-c3ccccc3)nc2c1
active: [1] | [2] | [3] | [4] | [5] | [6]

CCOc1ccccc1-n1c(C(C)N2CCN(C(=O)COc3ccc(Cl)cc3)CC2)nc2ccccc2c1=O (configuration not stated)
active: [7] | [8] | [9] | [10] | [11] | [12] | [13] | [14] | [15]

CN(Cc1cnc2nc(N)nc(N)c2n1)c1ccc(C(=O)N[C@@H](CCC(=O)O)C(=O)O)cc1
active: [16] | [17]
